In data set [1] the target is T1, recombinant rat sEH (Rattus norvegicus, UniProt P80299).
T1 construct: made in house; host or cells: insect High Five cells, recombinant baculovirus
T1 sequence (P80299 1-554): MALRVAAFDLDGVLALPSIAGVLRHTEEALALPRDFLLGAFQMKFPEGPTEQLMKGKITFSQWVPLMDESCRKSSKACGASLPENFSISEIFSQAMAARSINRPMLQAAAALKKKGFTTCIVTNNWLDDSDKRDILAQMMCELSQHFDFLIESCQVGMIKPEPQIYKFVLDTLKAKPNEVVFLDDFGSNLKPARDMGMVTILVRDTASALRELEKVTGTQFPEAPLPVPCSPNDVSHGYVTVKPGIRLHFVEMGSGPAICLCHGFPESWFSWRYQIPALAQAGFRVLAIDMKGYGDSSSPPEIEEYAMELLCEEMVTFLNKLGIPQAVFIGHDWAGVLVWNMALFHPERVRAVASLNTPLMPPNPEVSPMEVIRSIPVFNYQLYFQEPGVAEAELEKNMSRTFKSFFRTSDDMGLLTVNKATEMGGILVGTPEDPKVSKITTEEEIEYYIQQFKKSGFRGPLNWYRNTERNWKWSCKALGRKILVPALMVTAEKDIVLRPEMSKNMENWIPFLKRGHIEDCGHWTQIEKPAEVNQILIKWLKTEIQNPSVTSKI
Briefly: sEH inhibition by fluorescent assay (CMNPC assay), rat. The data set is classed as biochemical. As to conditions: recombinant rat sEH 0.96 nM, [S] = 5 μM, mean ± SD of three measurements. As for the experimental part: (§1) Recombinant human and recombinant rat sEH were produced in insect High Five cells using recombinant baculovirus expression vectors, and purified by affinity chromatography as reported previously. Each enzyme appeared as a single band (0.3 μg loading) with an estimated purity of more than 95% by Coomassie Brilliant Blue staining following SDS-PAGE separation (S1 Fig.). The final recombinant sEH preparations had no esterase or glutathione S-transferase activity which interferes with the CMNPC assay as described below.
(§2) IC50 values were determined as described previously using cyano (2-methoxynaphthalen-6-yl) methyl trans-(3-phenyl-oxyran-2-yl) methyl carbonate (CMNPC) as a fluorescent substrate. Recombinant human or recombinant rat sEH (0.96 nM) was incubated with crude root extract or inhibitors for 5 min in 25 mM bis-Tris/HCl buffer (pH 7.0) containing 0.1 mg/mL of BSA at 30°C prior to substrate introduction ([S] = 5 μM). Activity was measured by determining the appearance of the 6-methoxy-2-naphthaldehyde with an excitation wavelength of 330 nm and an emission wavelength of 465 nm for 10 min.

Data set [2] concerns the target T2, recombinant human sEH (Homo sapiens, UniProt P34913).
T2 construct: made in house; host or cells: insect High Five cells, recombinant baculovirus
T2 sequence (P34913 1-555): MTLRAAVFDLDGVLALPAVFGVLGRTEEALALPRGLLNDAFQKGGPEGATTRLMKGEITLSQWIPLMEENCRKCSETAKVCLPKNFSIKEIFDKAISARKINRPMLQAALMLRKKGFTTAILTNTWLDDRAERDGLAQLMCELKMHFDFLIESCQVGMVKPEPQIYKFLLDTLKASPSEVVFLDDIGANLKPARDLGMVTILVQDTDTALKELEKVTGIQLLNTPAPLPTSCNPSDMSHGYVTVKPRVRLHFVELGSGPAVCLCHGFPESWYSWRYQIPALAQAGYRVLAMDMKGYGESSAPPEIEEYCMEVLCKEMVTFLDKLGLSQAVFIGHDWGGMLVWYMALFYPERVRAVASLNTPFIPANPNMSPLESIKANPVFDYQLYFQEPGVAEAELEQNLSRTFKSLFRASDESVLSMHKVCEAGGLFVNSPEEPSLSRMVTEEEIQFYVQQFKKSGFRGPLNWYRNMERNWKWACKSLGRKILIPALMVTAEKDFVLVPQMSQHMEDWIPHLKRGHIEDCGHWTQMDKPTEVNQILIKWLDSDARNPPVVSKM
The data set can be described thus: sEH inhibition by radioactivity-based assay (t-DPPO assay), human. The data set is classed as biochemical. As to conditions: for IC50: t-DPPO 50 μM, mean ± SD of three measurements. As for the experimental part:
as §1
IC50 values were determined as described previously with slight modifications, using racemic [^3H] trans-diphenylpropene oxide (t-DPPO). Purified recombinant human sEH was diluted in 100 mM sodium phosphate buffer (pH 7.4) containing 0.1 mg/ml BSA, and was incubated in triplicate with inhibitors for 5 min at 30°C prior to the introduction of the radiolabeled substrate (t-DPPO: 50 μM; ∼10,000 cpm/assay). The mixture was incubated at 30°C for 10 min and the reaction was quenched by the addition of 60 μl of methanol. The remaining substrate was extracted by vigorous mixing with 200 μl of isooctane. The radioactivity of the aqueous phase was measured using a liquid scintillation counter (Perkin Elmer Tri-Carb 2810TR, Shelton, CT). Epoxide hydrolase activity was determined as a percentage of the radioactivity corresponding to the diol in the aqueous phase relative to the control.

Data set [3] deals with T2, recombinant human sEH. The data set can be described thus: sEH inhibition by fluorescent assay (CMNPC assay), human. It counts as biochemical. The conditions noted are these: for IC50: recombinant human sEH 0.96 nM, [S] = 5 μM, mean ± SD of three measurements. As for the experimental part:
as §1, §2
The inhibitory potency on human sEH was measured using the CMNPC assay as described in the Materials and Methods. Firstly, the inhibition percentage by each fraction (100 times dilution) was measured (Figure S5&S7). Then the inhibitory potency was measured for the fractions showing higher than 50% inhibition and the IC50 was determined. The potency of each of the fractions is presented as a relative potency to the calculated IC50 of the extract based on the concentration of MMU (Relative potency unit=dilution factor at IC50 of each of fraction/dilution factor at calculated IC50 of the extract based on MMU). […] Data in Table S1&S2 show the relative potency of each fraction and the percentage of recovered potency.

Data set [4] concerns sEH. The conditions noted are these: cited from earlier work.
The subject of data set [5] is human sEH. As to conditions: cited from earlier work.
Data set [6] deals with carrageenan induced inflammatory pain. Details: method as in Rose et al., (2010). As to conditions: rat, ref Rose et al., (2010), cited from earlier work.
Data set [7] in a line: Solubility in sodium phosphate buffer. The data set is classed as physicochemical. As to conditions: sodium phosphate buffer 0.1 M pH 7.4, 25°C, mean±SD. Here is the method: An excess amount of MMU was added to a vial containing sodium phosphate buffer, 0.1 M pH 7.4 (0.25 mL), and the MMU suspension was equilibrated during 1 h of sonication and 48 h of shaking at 25°C, followed by centrifugation. The amount of MMU in the supernatant was analyzed by LC—MS/MS. The result is presented as mean ± SD of triplicate measurement.

Data set [8] deals with T2, recombinant human sEH. The data set can be described thus: Enzyme kinetics (Dixon method, t-DPPO substrate), dissociation constant. It counts as biochemical. As for the experimental part: Dissociation constants were determined following the method described by Dixon for competitive tight binding inhibitors, using t-DPPO as a substrate. Inhibitor MMU at concentrations between 0 and 1000 nM was incubated in triplicate for 5 min in 100 mM sodium phosphate buffer (pH 7.4) at 30°C with 100 μl of the enzyme (2 nM of recombinant human sEH). Substrate (4.0 ≤ [S] final ≤ 30 μM) was then added. Velocity was measured as described previously. For each substrate concentration, the plots of the velocity as a function of the inhibitor concentration allow the determination of an apparent inhibition constant (Kiapp). The plot of the Kiapp values as a function of the substrate concentration allows the determination of Ki when [S] = 0. Kiapp was measured in at least 3 separate assays. Results are presented as average ± SE.

Data set [9] relates to carrageenan induced inflammatory pain. The data set can be described thus: Nociceptive assay, carrageenan-induced inflammatory pain model (von Frey mechanical withdrawal threshold). The data set is classed as in vivo. As to conditions: rat. As for the experimental part: Male Sprague-Dawley rats weighing 235–280 g were obtained from Charles River Laboratories and maintained in the UC Davis animal housing facility with ad libitum water and food on a 12 h/12 h light-dark cycle. Behavioral nociceptive testing was conducted by assessing mechanical withdrawal threshold using an electronic von Frey anesthesiometer apparatus (IITC, Woodland Hills, CA). […] At least three measurements were taken at 1–2 min inter-stimulus intervals. Data were normalized to percentage values using the formula (mechanical withdrawal threshold (g)) ×100/ (mechanical withdrawal threshold (g) of naïve animals). The analgesic effect of MMU was tested using the intraplantar carrageenan elicited local inflammatory pain model. […] Subsequently, the ability of these treatments to reduce the carrageenan-induced inflammatory pain was monitored over the course of 2.5 h.

The values that follow come from publication PMC4319826, “Potent Natural Soluble Epoxide Hydrolase Inhibitors from Pentadiplandra brazzeana Baillon: Synthesis, Quantification, and Measurement of Biological Activities In Vitro and In Vivo” (PLoS ONE, 2015).

Values after ≈ are worked out from the molar mass of the structure shown. “Also recorded” adds a separate entry of the source. Read-outs that look alike come from different tables or passages of the source.

As for `O=C(NCc1ccccc1)NCc1ccccc1` [BBU, 1,3-Dibenzylurea], the IC50 was 100 ± 6 nM in data set [1], 48300 ± 7000 nM in [2] and 1900 ± 300 nM in [3].

With `C=CCc1ccc(O)c(-c2ccc(O)c(CC=C)c2)c1` [honokiol, reference compound], the IC50 in data set [4] is 3400 nM; in data set [2], 20300 ± 1700 nM.

Consider `O=C(Nc1ccc(OC(F)(F)F)cc1)NC1CCN(C(=O)C2CC2)CC1` [TPCU, 1-(1-(Cyclopropanecarbonyl)piperidin-4-yl)-3-(4-(trifluoromethoxy)phenyl) urea], for which, in data set [5], the IC50 was […]. Besides, the “reduction of carrageenan-induced inflammatory pain” value (“reduction” below) in data set [6] (10 ng/paw intraplantar) is given as “significantly reduced carrageenan induced inflammatory pain; also recorded: significantly reduced pain levels”.

Turning to `CN1CC[C@]23c4c5ccc(O)c4O[C@H]2[C@@H](O)C=C[C@H]3[C@H]1C5` [morphine], in data set [6] (10 μg/paw intraplantar), the “reduction” value was “significantly reduced carrageenan induced inflammatory pain; also recorded: significantly reduced pain levels”.

With `CC(=O)O[C@H]1CC[C@]2(C)[C@H]3CC=C4[C@@H]5CC(C)(C)CC[C@]5(C)CC[C@@]4(C)[C@]3(C)CC[C@H]2C1(C)C` [β-amyrin acetate], the IC50 in [4] is 570 nM.

In the case of `COc1ccc(CNC(=O)NCc2ccccc2)cc1` [BMU, 1-Benzyl-3-(4-methoxybenzyl) urea], the results for the IC50 in [1], in data set [2] and in data set [3] were 44 ± 4.2 nM, 10200 ± 2600 nM and 400 ± 50 nM, respectively. Further, the “inhibitory activity lower than that of MMU” value in data set [3] (with both CMNPC and t-DPPO assays) is on record as “about 4 fold”.

For the molecule `COc1ccc(CNC(=O)NCc2ccc(OC)cc2)cc1` [MMU, 1,3-Bis (4-methoxybenzyl) urea], the solubility at 48 h in data set [7] was 10.6 ± 2.1 µM (≈ 3.18 µg/mL). Further, in [8], the Ki was 54 nM, the “potency higher than APAU (Ki based)” value is recorded as “approximately 2 fold” and the “potency lower than t-AUCB (Ki based)” value is listed as “approximately 40 fold”. The IC50 in data set [1] was determined as 35 ± 5 nM. In addition, the IC50 in data set [2] amounted to 2600 ± 400 nM. In [2] (t-DPPO assay), the “potency relative to honokiol (more potent)” value is “about 8 fold”. The IC50 in data set [3] amounted to 92 ± 14 nM. Further, the “reduction” value in data set [9] (10 μg/paw intraplantar, 4 h after carrageenan, monitored 2.5 h) was “effectively reduced inflammatory pain; also recorded: significantly reduced carrageenan induced inflammatory pain; also recorded: significantly reduced pain levels; also recorded: showed local analgesic effects”. For the same molecule, the “duration of efficacy compared to morphine” value in data set [9] (MMU 10 μg/paw vs morphine 10 μg/paw, Tukey p<0.05) is “longer duration of efficacy compared to morphine”.
